Legend:
[1] = target: Protein arginine deiminase 4 (PAD4) (Homo sapiens, UniProt Q9UM07); assay: PAD4 ammonia release assay; format: biochemical; details: for IC50: PAD4 ammonia release assay, BAEE substrate, 60 min at RT, read-out: Average IC50 Abs; for relative potency of separated isomers in the PAD4 biochemical assay: SFC-separated stereoisomer pairs
In short: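 Ammonia release from BAEE substrate (2× mix 600 μM) was measured after 60 min at RT, following 15 min enzyme–compound preincubation (PAD4 2× 20 nM; pH 8.0 HEPES, 2 mM CaCl2, TCEP; 1.25% DMSO). Detection used OPA/DTT/EDTA for 120 min. % inhibition was taken versus reference-compound and DMSO controls; IC50 by four-parameter logistic fit.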

[2] = tested on: Citrullinated Histone H3 in dHL-60 cells (differentiated HL-60); assay: dHL-60 Cit-H3 ELISA assay; format: cell-based, human; details: Homo sapiens, HL-60, 3 h, stimulation with 25 μM A23187 for 3 h, read-out: Average IC50 Abs
Method: Cell culture: HL-60 cells were grown in IMDM+20% FBS+1% PS. The suspension cells were split into 1:5 with fresh media every 2-3 days to maintain cell density between 1×10^5 to 1×10^6 viable cells/mL. HL-60 cells differentiation: HL-60 cells were diluted to 1×10^5 cells/mL and differentiated into neutrophil-like cells with 100 mM DMF treatment for 72 hours in flask at 37° C., 5% CO2. dHL-60 Cells plating: • 1) HL-60 cells were collected, and the plate was centrifuged at 1000 rpm for 5 min. • 2) The HL-60 cells were diluted to 1.25×10^6 cells/mL and plated into a 96-well plate with 80 μL/well (i.e., 1×10^5/well). The plate was then incubated in the incubator (5% CO2, 37° C.) for 30 min to allow cells to adhere. Compound treatment: • 1) Preparation of compound serial dilution (source plate 500×, final DMSO concentration: 0.2%): briefly, compounds were dissolved in 100% DMSO to a concentration of 20 mM (the stock solution) and a 3-fold serial dilution with 8-point doses was performed. • 2) A 10× compound solution was pipetted up and down; and 10 μL/well of compounds were added into each well and incubated for 30 min. Stimulation with 25 μM A23187: • 1) A solution of A23187 (250 μM) in complete IMDM (IMDM+10% FBS+1% PS) containing 150 U/mL S7 Nuclease was prepared. The obtained solution was added 10 μL/well into each well and incubated for 3 h in the incubator (5% CO2, 37° C.). • 2) The dHL-60 cells treated with 10 μL/well complete IMDM without A23187 worked as negative control. Sample preparation: • 1) EDTA (0.5 M, 2 μL/well) were added to all the wells to stop the reaction. • 2) The plate was centrifuged at 1000 rpm for 5 min to collect supernatant. • 3) The supernatant was then diluted at least 1:2 before adding to the ELISA plate for citrullinated H3 analysis.
The standard was reconstituted with 2 mL of Assay buffer to 500 ng/mL. The reconstituted standard was relatively unstable at 4° C. and should be used within 3 hr after reconstitution.
• 1) 100 μL of the standards or diluted samples were added to the wells on the ELISA plate. • 2) The plate was covered with Cover Sheet and incubated for 2 h at room temperaturert on an orbital shaker.
On the day of the assay, the reagent was thawed at room temperaturert. For one plate, 1.2 mL of HRP Conjugate were diluted into 10.8 mL of assay buffer. A diluted HRP Conjugate was prepared shortly before use.
• 1) The wells were empties and rinsed four times with 1× wash buffer with 300 μL/well (Low speed). The plate was inverted between wash steps to empty the plate. After the last wash, the inverted plate was gently tapped on absorbent paper to remove the residual wash buffer. • 2) 100 μL of the HRP Conjugate working solution were added to each well of the plate. • 3) The plate was covered with cover sheet and incubated for 1 h at RT on an orbital shaker.
• 1) The wells were empties and rinsed four times with 1× wash buffer with 300 μL/well (low speed). The plate was inverted between wash steps to empty the plate. […] 100 uL of HRP STOP solution were added to each well of the plate.
• 1) Wipe the bottom of the plate with a clean tissue to remove fingerprints, dirt, etc. • 2) Read the plate at a wavelength of 450 nm.
The percent (%) inhibition at each concentration of compound was calculated based on and relative to the signal in the HPE and ZPE wells contained within each assay plate. The HPE wells worked as […], and the ZPE wells didn't contain any compound but rather DMSO (final concentration=0.1%) as […]. The concentrations and % inhibition values for tested compounds were plotted and the concentration of compound required for 50% inhibition (IC50) was determined with a Four-parameter logistic dose response equation. The endpoint value (IC50) for the reference peptide/compound was evaluated in each experiment as a quality control measure. If the endpoint value is within 3-fold of the expected value then the experiment is deemed acceptable. […]

Protein arginine deiminase 4 (PAD4), sequence (Q9UM07 whole entry): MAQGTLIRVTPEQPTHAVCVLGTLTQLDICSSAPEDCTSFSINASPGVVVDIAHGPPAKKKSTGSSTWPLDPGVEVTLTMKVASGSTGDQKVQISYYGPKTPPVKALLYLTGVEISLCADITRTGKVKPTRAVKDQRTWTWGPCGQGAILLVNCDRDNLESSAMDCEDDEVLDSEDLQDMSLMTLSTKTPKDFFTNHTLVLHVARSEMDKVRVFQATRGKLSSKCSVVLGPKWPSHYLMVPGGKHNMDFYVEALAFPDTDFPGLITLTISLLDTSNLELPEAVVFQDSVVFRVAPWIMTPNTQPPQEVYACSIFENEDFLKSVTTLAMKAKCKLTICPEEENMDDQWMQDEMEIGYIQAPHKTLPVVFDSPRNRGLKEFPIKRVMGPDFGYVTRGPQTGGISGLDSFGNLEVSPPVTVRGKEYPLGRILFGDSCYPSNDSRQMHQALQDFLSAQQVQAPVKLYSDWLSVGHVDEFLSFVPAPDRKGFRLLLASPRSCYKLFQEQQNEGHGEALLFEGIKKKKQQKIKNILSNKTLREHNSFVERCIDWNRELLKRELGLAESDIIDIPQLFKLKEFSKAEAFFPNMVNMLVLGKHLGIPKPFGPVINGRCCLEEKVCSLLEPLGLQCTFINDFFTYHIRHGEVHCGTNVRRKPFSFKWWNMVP

| Compound | IC50 [1] | IC50 [2] | relative potency of separated isomers in the PAD4 biochemical assay [1] |
| --- | --- | --- | --- |
| COc1cc(C(=O)N2C[C@H](N)C[C@@H](F)C2)cc2nc(-c3cc4cccc5c4n3CCN5CCCO)n(CC3CCC3)c12 [Example 48, ((3R,5R)-3-amino-5-fluoropiperidin-1-yl)(1-(cyclobutylmethyl)-2-(1-(3-hydroxypropyl)-2,3-dihydro-1H-pyrrolo[1,2,3-de]quinoxalin-5-yl)-7-methoxy-1H-benzo[d]imidazol-5-yl)methanone] | 100 to 500 nM | 100 to 500 nM | – |
| C#CCn1c(-c2cc3cccc4c3n2CCN4CCCO)nc2cc(C(=O)N3C[C@H](N)C[C@@H](F)C3)cc(OC)c21 [Example 49, ((3R,5R)-3-amino-5-fluoropiperidin-1-yl)(2-(1-(3-hydroxypropyl)-2,3-dihydro-1H-pyrrolo[1,2,3-de]quinoxalin-5-yl)-7-methoxy-1-(prop-2-yn-1-yl)-1H-benzo[d]imidazol-5-yl)methanone] | 100 to 500 nM | 500 to 5000 nM | – |
| COc1cc(C(=O)N2C[C@H](N)C[C@@H](F)C2)cc2nc(-c3cc4cccc5c4n3CCN5CCCO)n(CC3CC(F)(F)C3)c12 [Example 50, ((3R,5R)-3-amino-5-fluoropiperidin-1-yl)(1-((3,3-difluorocyclobutyl)methyl)-2-(1-(3-hydroxypropyl)-2,3-dihydro-1H-pyrrolo[1,2,3-de]quinoxalin-5-yl)-7-methoxy-1H-benzo[d]imidazol-5-yl)methanone] | ≤ 100 nM | 100 to 500 nM | – |
| COc1cc(C(=O)N2C[C@H](N)C[C@@H](F)C2)cc2nc(-c3cc4cccc5c4n3CCN5CCCO)n(CC3CC3)c12 [Example 59, ((3R,5R)-3-amino-5-fluoropiperidin-1-yl)(1-(cyclopropylmethyl)-2-(1-(3-hydroxypropyl)-2,3-dihydro-1H-pyrrolo[1,2,3-de]quinoxalin-5-yl)-7-methoxy-1H-benzo[d]imidazol-5-yl)methanone] | ≤ 100 nM | 500 to 5000 nM | – |
| COc1cc(C(=O)N2C[C@H](N)C[C@@H](F)C2)cc2nc(-c3cc4cccc5c4n3C(C)CN5CCCO)n(C)c12 (stereo partly drawn) [Example 64, ((3R,5R)-3-amino-5-fluoropiperidin-1-yl)(2-(1-(3-hydroxypropyl)-3-methyl-2,3-dihydro-1H-pyrrolo[1,2,3-de]quinoxalin-5-yl)-7-methoxy-1-methyl-1H-benzo[d]imidazol-5-yl)methanone] | 100 to 500 nM | 100 to 500 nM | – |
| CCC1CNc2cccc3cc(-c4nc5cc(C(=O)N6C[C@H]7CC[C@@H]6[C@@H]7N)cc(F)c5n4C)n1c23 (stereo partly drawn) [Example 72, ((1R,4R,7R)-7-amino-2-azabicyclo[2.2.1]heptan-2-yl)(2-(3-ethyl-2,3-dihydro-1H-pyrrolo[1,2,3-de]quinoxalin-5-yl)-7-fluoro-1-methyl-1H-benzo[d]imidazol-5-yl)methanone] | 100 to 500 nM | 100 to 500 nM | – |
| CC[C@H]1CNc2cccc3cc(-c4nc5cc(C(=O)N6C[C@H]7CC[C@@H]6[C@@H]7N)cc(F)c5n4C)n1c23 [Example 74, ((1R,4R,7R)-7-amino-2-azabicyclo[2.2.1]heptan-2-yl)(2-((S)-3-ethyl-2,3-dihydro-1H-pyrrolo[1,2,3-de]quinoxalin-5-yl)-7-fluoro-1-methyl-1H-benzo[d]imidazol-5-yl)methanone] | ≤ 100 nM | ≤ 100 nM | more potent than Example 73 |
| CCC1CN(CCCO)c2cccc3cc(-c4nc5cc(C(=O)N6C[C@H](N)C[C@@H](F)C6)cc(OC)c5n4C)n1c23 (stereo partly drawn) [Example 80, ((3R,5R)-3-amino-5-fluoropiperidin-1-yl)(2-(3-ethyl-1-(3-hydroxypropyl)-2,3-dihydro-1H-pyrrolo[1,2,3-de]quinoxalin-5-yl)-7-methoxy-1-methyl-1H-benzo[d]imidazol-5-yl)methanone] | 100 to 500 nM | 100 to 500 nM | – |
| CCC1CN(CCC(C)(C)O)c2cccc3cc(-c4nc5cc(C(=O)N6C[C@H]7CC[C@@H]6[C@@H]7N)cc(F)c5n4C)n1c23 (stereo partly drawn) [Example 88, ((1R,4R,7R)-7-amino-2-azabicyclo[2.2.1]heptan-2-yl)(2-(3-ethyl-1-(3-hydroxy-3-methylbutyl)-2,3-dihydro-1H-pyrrolo[1,2,3-de]quinoxalin-5-yl)-7-fluoro-1-methyl-1H-benzo[d]imidazol-5-yl)methanone] | 100 to 500 nM | 100 to 500 nM | – |
| C#CCn1c(-c2cc3cccc4c3n2C(CC)CN4CCCO)nc2cc(C(=O)N3C[C@H]4CC[C@@H]3[C@@H]4N)cc(F)c21 (stereo partly drawn) [Example 91, ((1R,4R,7R)-7-amino-2-azabicyclo[2.2.1]heptan-2-yl)(2-(3-ethyl-1-(3-hydroxypropyl)-2,3-dihydro-1H-pyrrolo[1,2,3-de]quinoxalin-5-yl)-7-fluoro-1-(prop-2-yn-1-yl)-1H-benzo[d]imidazol-5-yl)methanone] | 100 to 500 nM | 100 to 500 nM | – |

Other lines, results leading:

| IC50 [1] | IC50 [2] | relative potency of separated isomers in the PAD4 biochemical assay [1] | Compound |
| --- | --- | --- | --- |
| 100 to 500 nM | 100 to 500 nM | – | CCn1c(-c2cc3cccc4c3n2C(C)CN4CCCO)nc2cc(C(=O)N3C[C@H]4CC[C@@H]3[C@@H]4N)cc(OC)c21 (stereo partly drawn) [Example 68, ((1R,4R,7R)-7-amino-2-azabicyclo[2.2.1]heptan-2-yl)(1-ethyl-2-(1-(3-hydroxypropyl)-3-methyl-2,3-dihydro-1H-pyrrolo[1,2,3-de]quinoxalin-5-yl)-7-methoxy-1H-benzo[d]imidazol-5-yl)methanone] |
| ≤ 100 nM | ≤ 100 nM | – | CCC1CN(CCCO)c2cccc3cc(-c4nc5cc(C(=O)N6C[C@H]7CC[C@@H]6[C@@H]7N)cc(F)c5n4C)n1c23 (stereo partly drawn) [Example 69, ((1R,4R,7R)-7-amino-2-azabicyclo[2.2.1]heptan-2-yl)(2-(3-ethyl-1-(3-hydroxypropyl)-2,3-dihydro-1H-pyrrolo[1,2,3-de]quinoxalin-5-yl)-7-fluoro-1-methyl-1H-benzo[d]imidazol-5-yl)methanone] |
| ≤ 100 nM | ≤ 100 nM | more potent | CC[C@H]1CN(CCCO)c2cccc3cc(-c4nc5cc(C(=O)N6C[C@H]7CC[C@@H]6[C@@H]7N)cc(F)c5n4C)n1c23 [Example 71, ((1R,4R,7R)-7-amino-2-azabicyclo[2.2.1]heptan-2-yl)(2-((S)-3-ethyl-1-(3-hydroxypropyl)-2,3-dihydro-1H-pyrrolo[1,2,3-de]quinoxalin-5-yl)-7-fluoro-1-methyl-1H-benzo[d]imidazol-5-yl)methanone] |
| 100 to 500 nM | ≤ 100 nM | – | CCC1CN(CCCO)c2cccc3cc(-c4nc5cc(C(=O)N6C[C@H]7CC[C@@H]6[C@@H]7N)cc(OC)c5n4C)n1c23 (stereo partly drawn) [Example 85, ((1R,4R,7R)-7-amino-2-azabicyclo[2.2.1]heptan-2-yl)(2-(3-ethyl-1-(3-hydroxypropyl)-2,3-dihydro-1H-pyrrolo[1,2,3-de]quinoxalin-5-yl)-7-methoxy-1-methyl-1H-benzo[d]imidazol-5-yl)methanone] |

Reference: patent US20250136607A1 (REGOR PHARMACEUTICALS, INC., priority 2021, published 2025)
